Measured values as given in US20160296529A1, “AMINOTRIAZOLOPYRIDINE FOR USE IN THE TREATMENT OF INFLAMMATION, AND PHARMACEUTICAL COMPOSITIONS THEREOF” (priority 2012, published 2016).
Several values for one entry are separate records, joined by “and”; a condition that tells them apart may be missing. Equal entries are not always repeated. Where two headings read alike, the source gives them in different places.

Biological target: T1, Recombinant human JAK1 catalytic domain (Homo sapiens, UniProt P23458)
T1 construct: amino acids 866-1154; catalog number PV4774; purchased Invitrogen PV4774
T1 sequence (P23458 866-1154): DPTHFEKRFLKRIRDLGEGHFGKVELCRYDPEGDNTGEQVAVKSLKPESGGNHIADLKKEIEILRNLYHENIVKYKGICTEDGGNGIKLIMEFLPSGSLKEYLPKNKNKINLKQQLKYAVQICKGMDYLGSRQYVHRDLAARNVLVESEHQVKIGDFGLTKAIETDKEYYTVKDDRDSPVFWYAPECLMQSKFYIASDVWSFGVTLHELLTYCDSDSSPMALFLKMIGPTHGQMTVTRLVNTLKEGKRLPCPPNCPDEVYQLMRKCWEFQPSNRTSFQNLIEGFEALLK
Assay: JAK1 assay polyGT substrate
Type: biochemical
Description: Recombinant human JAK1 catalytic domain (amino acids 866-1154; catalog number PV4774) was purchased from Invitrogen. 25 ng of JAK1 was incubated with 6.25 μg polyGT substrate (Sigma catalog number P0275) in kinase reaction buffer (15 mM Hepes pH7.5, 0.01% Tween20, 10 mM MgCl2, 2 μM non-radioactive ATP, 0.25 μCi ^33P-gamma-ATP (Perkin Elmer, catalog number NEG602K001MC) final concentrations) with or without 5 μL containing test compound or vehicle (DMSO, 1% final concentration), in a total volume of 25 μL, in a polypropylene 96-well plate (Greiner, V-bottom). After 75 min at 30° C., reactions were stopped by adding 25 μL/well of 150 mM phosphoric acid. […] 40 μL/well of Microscint-20 was added, the top of the plates was sealed and readout was performed using the Topcount (Perkin Elmer). Kinase activity was calculated by subtracting counts per min (cpm) obtained in the presence of a positive control inhibitor (10 μM staurosporine) from cpm obtained in the presence of vehicle. The ability of a test compound to inhibit this activity was determined as:
Percentage inhibition−((cpm determined for sample with test compound present−cpm determined for sample with positive control inhibitor) divided by (cpm determined in the presence of vehicle−cpm determined for sample with positive control inhibitor))*100. […]

IC50 (average, read-out: IC50 (average)): 546 nM
IC50 (individual determinations, read-out: IC50): 460 nM and 586 nM and 494 nM and 758 nM and 433 nM
SMILES: Nc1nc2cccc(-c3ccc(CN4CCS(=O)(=O)CC4)cc3)n2n1 [Formula I, 5-[4-(1,1-Dioxothiomorpholin-4-ylmethyl)-phenyl]-[1,2,4]triazolo[1,5-a]pyridin-2-ylamine]
